Reference: PMC9887927, “Biochemical characterization and insights into the potency of the acidic Aspergillus niger NRC114 purified α-galactosidase in removing raffinose family oligosaccharides from soymilk yogurt” (BMC Biotechnology, 2023)

System: T1, Aspergillus niger NRC114 α-galactosidase
T1 construct: gene aglB; native secreted enzyme purified from culture filtrate (ammonium sulfate, Sephadex G-100, DEAE-Sephadex A-50); 64 kDa monomer by SDS-PAGE
Assay: p-nitrophenol release, absorbance; Lineweaver-Burk plot
Format: biochemical
Settings: pH 3.5, 60 °C; substrate range printed as 0.04–0.8 µM; printed unit doubtful (probably mM: compared with mM literature values, assay stock 4 mM)

With O=[N+]([O-])c1ccc(O[C@H]2O[C@H](CO)[C@H](O)[C@H](O)[C@H]2O)cc1 [p-nitrophenyl-α-D-galactopyranoside] the Km was 0.000401 mM.
